Literature values, collected in patent publication US9388155B1, “Coumarin derivatives for cancer therapy” (Wellesley College, priority 2013, dated 2016).

Test system: pancreatic cancer cell line PANC-1
Conditions: PANC-1, nutrient starvation conditions, within 24 hours

For `CC(C)(OC(=O)C=Cc1ccc(O)cc1)C1Cc2c(ccc3ccc(=O)oc23)O1` (stereo not shown) [Angelmarin, 11-O-(p-hydroxy-cinnamoyl) columbianetin], which cytotoxicity is on record?
The cytotoxicity was 0.01 µg/mL.
